In brackets after ≈: the same amount, converted by molar mass. Structures can show the parent of a compound that is named as a salt.
Legend:
physchem = details: 25 °C, thermodynamic from solid
[1] = Batch crystallization with Zorbax, mother liquor concentration via HPLC; assay type: physicochemical; details: after batch crystallization of saturated isopropyl alcohol solution with Zorbax, stirred 6 h at 25° C.; effective solubility
[2] = Capillary XRPD with Zorbax, critical minimum concentration for crystallization; details: isopropyl alcohol solutions in capillaries containing functionalized Zorbax
Text: In order to test this hypothesis, solutions of successively lower concentrations were loaded into capillaries containing the functionalized Zorbax® and tested for the presence of crystals. […] The tubes were made of glass #50, with a 1.0 mm OD, wall thickness of 0.01 mm and length of 80 mm. The capillary tubes were packed with Zorbax® or CPG material by scooping powder into the tip, placing the capillary in a larger diameter glass pipette, and tapping to allow gravity to act on the powder to settle. Once packed, the tubes were suctioned at the open end with a 1-mL plastic syringe, using a small piece of rubber tubing to adapt the fit. The filled capillary was then immediately dipped into the undersaturated API solutions to allow the solution to fill the tube. Molten wax was used to plug the end of the capillary, and the tip was then heated in a Bunsen burner flame to seal. Additional capillaries were filled with the API solution and dry commercial API alone.
To check the hypothesis that there exists a critical minimum undersaturation below which the Zorbax® cannot induce crystallization, solutions of successively decreasing concentrations were tested with the capillary method.

solubility (physchem; water)	Mother liquor concentration [1]	Concentration range from XRPD (critical minimum concentration for crystallization to occur) [2]	solubility (physchem; organic solvent or mixture)	SMILES
15.5 mg/mL (≈ 103 mM)	–	–	–	CC(=O)Nc1ccc(O)cc1 [Acetaminophen]
–	66.8 mg/mL	65000 to 70000 µg/mL	90 mg/mL (≈ 500 mM)	CC(=O)Oc1ccccc1C(=O)O [Aspirin]
–	–	25000 to 27000 µg/mL	–	CN(C)CCOC(c1ccccc1)c1ccccc1 [Diphenhydramine hydrochloride]
–	33.2 mg/mL	30000 to 35000 µg/mL	46.5 mg/mL (≈ 381 mM)	NC(=O)c1cccnc1 [Nicotinamide]

Reference: patent US20190337978A1, “CRYSTALLIZATION METHODS USING FUNCTIONALIZED NANOPOROUS MATRICES AND RELATED SYSTEMS” (Massachusetts Institute of Technology, priority 2018, published 2019)
